This is an account of results in US5221664A, “Composition and treatment with biologically active peptides and toxic cations” (Magainin Pharmaaceuticals Inc., priority 1991, dated 1993).

Several values for one entry are separate records, joined by “and”; a condition that tells them apart may be missing. Equal values may be shown once. Read-outs that look alike come from different tables or passages of the source. Ends that are not written are not given here.

For assay [1], the system named is clinical isolate of a methicillin resistant S. aureus (MSRA). The format is cell-based. The conditions noted are these: agent alone. The protocol:
Approximately 1-5×10^5 CFUs of a clinical isolate of a methicillin resistant S. aureus (MSRA), dispersed in 100 μl of TSB were added to each test well. […] The MIC of each peptide alone, and of silver nitrate alone was determined. The MIC of each peptide when 5 μg/ml and/or 10 μg/ml of silver nitrate was added was determined as well.

The subject of assay [2] is P. aeruginosa strain 27853. As for the experimental part: Approximately 1-5×10^5 colony forming units (CFUs) of P. aeruginosa strain 27853, dispersed in 100 μl of Trypticase soy broth (TSB), were added to each test well. […] B13-33 peptide is of the following structure:
The following peptide combinations were tested for Minimal Inhibitory Concentration (MIC) of the B13-33 peptide:
The following combinations were tested for the MIC of silver nitrate:
Approximately 1-5×10^5 CFUs of P. aeruginosa strain 27853 dispersed in 100 μl of TSB were added to each test well. […]

The subject of assay [3] is P. aeruginosa strain 107 which was gentamicin resistant. Put plainly: Minimum Inhibitory Concentration (MIC) in TSB, test wells. Type of assay: cell-based. The conditions noted are these: for MIC: agent alone, gentamicin resistant P. aeruginosa strain 107; for MIC of the peptide: P. aeruginosa strain 107. As for the experimental part: Approximately 1-5×10^5 CFUs of P. aeruginosa strain 107 which was gentamicin resistant, dispersed in 100 μl of TSB were added to each test well. […] The following combinations of Magainin II, with or without silver nitrate, were tested for Minimum Inhibitory Concentration (MIC) of Magainin II: […]

Where [4] appears, read: agent alone, P. aeruginosa strain 27853.
[5] abbreviates: plus 3 μg/ml silver nitrate, P. aeruginosa strain 27853.

A word on the MIC: it is the smallest concentration in the dilution series that meets the test's criterion for growth inhibition. With `O=[N+]([O-])[O-].[Ag+]` [Silver nitrate, silver nitrate, reference compound], the MIC in assay [1] was 16 µg/mL; in assay [2] (setting [4]), 4 to 8 µg/mL and 8 µg/mL; in assay [2] (agent alone, P. aeruginosa strain 27853, listed as silver nitrate), 2 to 8 µg/mL; in assay [3], 8 µg/mL. In addition, the “MIC of silver nitrate” value in assay [2] (plus 1.6 μg/ml B13-33 peptide, P. aeruginosa strain 27853) was 2 to 8 µg/mL; in assay [2] (plus 5 μg/ml B13-33 peptide, P. aeruginosa strain 27853) it was less than 0.25 µg/mL; in assay [2] (plus 5 μg/ml B13-33 peptide, P. aeruginosa strain 27853, listed as silver nitrate), “less than 0.25 μg/ml”.
Consider “GIGKFLHSAKKFGKAFVGEIMNS-NH2 [Magainin II]”, for which the “MIC of the peptide” value in assay [2] (plus 1 μg/ml silver nitrate, P. aeruginosa strain 27853) is 32 µg/mL; in assay [2] (plus 2 μg/ml silver nitrate, P. aeruginosa strain 27853) it was 16 µg/mL; in assay [2] (setting [5]), 8 µg/mL; in assay [2] (plus 4 μg/ml silver nitrate, P. aeruginosa strain 27853) it was less than 0.03 µg/mL; in assay [3] (plus 1 μg/ml silver nitrate) it was 32 µg/mL; in assay [3] (plus 2 μg/ml silver nitrate) it was 16 µg/mL. The “MIC of the peptide” value in assay [3] (plus 3 μg/ml silver nitrate) was 16 µg/mL; in assay [3] (plus 4 μg/ml silver nitrate) it was 4 µg/mL; in assay [3] (plus 5 μg/ml silver nitrate), less than 0.03 µg/mL. In addition, the MIC in assay [3] is 256 µg/mL.
With GIGKFLKKAKKFGKAFVKIMKK [B13-33 peptide], the MIC in assay [2] (strain 27853) lay in the range of 4 to 16 µg/mL.
As for “KWKLFKKIEKVGQRVRDAVISAGPAVATVAQATALAK [Cecropin A-D]”, the MIC in assay [2] (setting [4]) came to 16 µg/mL. The “MIC of the peptide” value in assay [2] (setting [5]) was less than 0.25 µg/mL.
